In patent US11345675B2, “Compound, anti-allergy drug, and mediator release inhibitor” (LAIMU CORPORATION, priority 2018, dated 2022):
“Also recorded” adds a separate entry of the source.

Columns and labels:
[1] = tested on: PCA (passive cutaneous anaphylaxis) reaction; assay: PCA reaction inhibition test (Evans blue dye leakage in auricle); type: in vivo; conditions: applied to auricle of ICR male mice, 90 nmol/auricle (6-sPalm-AA-2G 150 nmol/auricle), 3.5 hours before DNP-HSA-Evans blue i.v.; FIG. 2
Method: In this Example, the anti-allergy activity of the compound 1 and the compound 2 was evaluated based on, as an index, the inhibiting effect thereof against PCA (passive cutaneous anaphylaxis) reaction. PCA reaction is a series of cell reaction of an allergy reaction including immobilization of mast cells via an Fc part of immunoglobulin, antigen-antibody reaction on the cells, release of inflammatory mediator from the mast cells through the reaction and promotion of vascular permeability. Here, after an anti-DNP-IgE antibody solution has been subcutaneously administered to a test body, a solution containing a 2,4-dinitrophenyl group (DNP)-labeled human serum albumin (HSA) and a dye (Evans blue) (DNP-HSA-Evans blue solution) is intravenously administered, and the vascular permeability increase according to the antigen-antibody reaction is quantified by the absorbance increase owing to dye leakage from the blood vessel to the tissue to thereby evaluate the PCA reaction inhibiting effect. […]
An aqueous 1 N potassium hydroxide solution (0.5 mL) was added to the thus-cut auricle, and shaken at 37° C. overnight. After shaking, a mixed solution (3.25 mL) of aqueous 0.34 M phosphoric acid solution/acetone=13/5 (v/v) was added, and centrifuged by 700×g at 4° C. for 20 minutes, and the absorbance at 620 nm of the supernatant was measured. […]

[2] = tested on: rat basophilic leukemia cells RBL-2H3; assay: Degranulation inhibiting test (β-hexosaminidase release induced by antigen-antibody reaction); type: cell-based; conditions: RBL-2H3 cells, anti-DNP-IgE/DNP-HSA stimulation; compounds 1, 2 and 6-sPalm-AA-2G at 40, 60 or 80 μM, oxatomide 75 μM; FIG. 1
Method: In this Example, the compound 1 and the compound 2 were evaluated in terms of the effect thereof to inhibit degranulation to be induced by stimulation of an antigen-antibody reaction. Degranulation was quantified based on, as an index, β-hexosaminidase release from rat basophilic leukemia cells RBL-2H3. Specifically, β-hexosaminidase is an enzyme released through degranulation of mast cells or basocytes, and through enzymatic reaction with a substrate, p-nitrophenyl-2-acetamide-2-deoxy-β-glucopyranoside, this increases the absorbance at 405 nm of the reaction liquid. Here, the degranulation inhibiting effect was evaluated from the absorbance change as an index of β-hexosaminidase release amount (degree of degranulation).
The compound 1 and the compound 2 were individually dissolved in a 0.25% dimethyl sulfoxide-containing MT buffer at a concentration of 40 μM, 60 μM or 80 μM to prepare solutions to be evaluation samples. On the other hand, as comparative samples, 6-sPalm-AA-2G was dissolved in a 0.25% dimethyl sulfoxide-containing MT buffer at a concentration of 40 μM, 60 μM or 80 μM to prepare solutions, and oxatomide was dissolved in a 0.25% dimethyl sulfoxide-containing MT buffer at a concentration of 75 μM to prepare a solution. […]

SMILES | dye leakage (relative absorbance at 620 nm, control = 100) [1] | β-hexosaminidase release inhibition ratio (degranulation inhibition ratio) [2]
CCCCCCCCCCCCCCCC(=O)OC[C@H](O)[C@H]1OC(=O)C(OC)=C1O [compound 1] | lower than the dye leakage in the system with 6-sPalm-AA-2G | greatly higher than the degranulation inhibition ratio of the system added with 6-sPalm-AA-2G, and surpasses the degranulation inhibition ratio of the system added with oxatomide
CCCCCCCCCCCCCCCC(=O)NC[C@H](O)[C@H]1OC(=O)C(OC)=C1O [compound 2] | lower than the dye leakage in the system with 6-sPalm-AA-2G; also recorded: suppressed more than that in the system where oxatomide had been applied; also recorded: tends to have a higher anti-allergy activity than the compound 1 | greatly higher than the degranulation inhibition ratio of the system added with 6-sPalm-AA-2G, and surpasses the degranulation inhibition ratio of the system added with oxatomide; also recorded: tends to have a higher degranulation inhibiting effect than the compound 1
